One data set addresses CRBN (Homo sapiens, UniProt Q96SW2). The data set is described as follows: Elution of CRBN from thalidomide-immobilized beads by test compound, Western blotting. The settings on record: for CRBN eluted from thalidomide-immobilized beads by the compound: 293T cell extracts, buffer containing 0.1 to 1 mM compound, one hour, Western blotting; for bindability with CRBN: concluded from elution from thalidomide-immobilized beads. In general terms: Immunoblotting shows a protein as a band on a membrane.

The subject of data set [1] is multiple myeloma cell Kms12. The experiment in a line: Growth inhibition of multiple myeloma cells, Cell Count-Reagent SF. It is filed as cell-based, human. The settings on record: 48 hours, 37° C., 5% CO2. As for the experimental part: KMS-12 cells were incubated with thalidomide or 5HPP-33 (100 μM) for 48 hours at 37° C. in 5% CO2. For measurement of the number of the living cells, Cell Count-Reagent SF (Nacalai Tesque, Inc.) was added to culture media for 2 hours at the end of the 48 hours culture. The absorbance at 450 nm was measured.
Multiple myeloma cell Kms12 were cultured in RPMI Medium 1640 containing 10% FBS. For treatment with drugs, the medium was adjusted to contain 2×10^5 Kms12 cells/ml and dispensed in 2 ml Eppendorf tubes in 2 ml aliquots. As the stock solution, thalidomide or 5HPP-33 were dissolved in dimethylsulfoxide (DMSO) at concentration of 100 mM and […] respectively. The stock solution was added to the cell suspension at 2 μl/2 ml, followed by gentle and thorough inversion mixing. Cell mixture was dispensed in a 96 well plate at 100 μl/well and cultured at 37° C. and 5% CO2 for 48 hours. For measurement of the number of the living cells, Cell Count-Reagent SF (Nacalai Tesque, Inc.) was added to culture media and incubated for 2 hours. The absorbance at 450 nm, which is correlate to the number, were measured by GloMax-Multi+ Detection System (Promega KK) For preparation of a calibration curve, 1×10^6, 3×10^5 and 1×10^5 Kms12 cells/ml were used. Defining the number of cells treated with the solvent as 100, the number of cells treated with the drugs were expressed as relative values.

For a further data set, the system named is DDB1. The data set is described as follows: Elution of DDB1 from thalidomide-immobilized beads by test compound, Western blotting. The conditions noted are these: Example 6; 293T extracts; elution with 1 mM compound.
The test system of the next data set is fgf8a. The data set is described as follows: Whole-mount in situ hybridization of zebrafish fin buds. The class given is in vivo. The conditions noted are these: AMO injected embryos. The text has this:
(§1) To obtain a clue to the pathway(s) downstream of CRBN and thalidomide, the present inventors analyzed well-known key molecules in fin development. Sonic hedgehog (Shh) is expressed in the zone of polarizing activity (ZPA) and is responsible for anteroposterior patterning of the limb and fin (Cited Literature 27), whereas Fgf8 is expressed in the apical ectodermal ridge (AER) of the limb and fin and is necessary for outgrowth of the limb and fin along the proximodistal axis. […] Thus, an inhibitor of FGF8 production is a possible downstream target of thalidomide and the CRBN-containing E3 complex.
(§2) This assay was carried out in accordance with Cited Literature 41. Antisense probe for zcrbn mRNA was directed against the 5′-coding region of 513 bp. Antisense probe for zcul4a was directed against the 3′ untranslated region (3′ UTR) of 590 bp. Probes for shh and fgf8 were kindly provided by Dr. Krauss and Dr. Thisse, respectively. To increase permeability of probes, fixed embryos were incubated with PBS containing 0.1% Tween-20 and […] proteinase K for two minutes at room temperature.

Another data set relates to shh. Described as above. The settings on record: AMO injected embryos. The class given is in vivo.
From the text: as §1, §2

A further data set deals with zebrafish embryos. The experiment in a line: Zebrafish embryo development, pectoral fins and otic vesicles. It is filed as in vivo, zebrafish (Danio rerio). The settings on record: for fin and otic vesicle development: AMO injected into one cell stage embryos.

Entries after “also recorded” stand apart in the source; their conditions may differ.

CRBN, sequence (Q96SW2 whole entry): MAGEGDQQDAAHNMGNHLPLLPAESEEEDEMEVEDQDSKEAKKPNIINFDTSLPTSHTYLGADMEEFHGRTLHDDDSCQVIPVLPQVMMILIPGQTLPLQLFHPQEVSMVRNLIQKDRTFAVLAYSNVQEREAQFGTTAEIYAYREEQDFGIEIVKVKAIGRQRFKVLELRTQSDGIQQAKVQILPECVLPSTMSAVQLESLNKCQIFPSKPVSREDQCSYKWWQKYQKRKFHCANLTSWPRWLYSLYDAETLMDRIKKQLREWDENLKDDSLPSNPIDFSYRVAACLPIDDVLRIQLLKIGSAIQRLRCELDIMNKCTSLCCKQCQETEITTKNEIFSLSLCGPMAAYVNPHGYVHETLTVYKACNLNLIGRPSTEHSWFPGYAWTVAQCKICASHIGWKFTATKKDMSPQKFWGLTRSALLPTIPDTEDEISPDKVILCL
Procedure for CRBN: Firstly, thalidomide-immobilized FG beads are prepared. The immobilized beads are mixed and incubated with extracts of CRBN-expressing cells or recombinant proteins for one hour or longer in a rotator at 5 rpm and 4° C. Then, after the beads are washed with a buffer, for example, a buffer containing a thalidomide derivative as a test substance is passed through the beads to see whether CRBN is eluted. Examples of a detection method include Western blotting, dot blotting, CBB staining, and silver staining.

For `CC(C)c1cccc(C(C)C)c1N1C(=O)c2ccc(O)cc2C1=O` [5HPP-33], at CRBN, the “CRBN eluted from thalidomide-immobilized beads by the compound” value was “very little CRBN was eluted; also recorded: not eluted”; the “bindability with CRBN” value is “low bindability and low and extremely low bindability”. The “proliferation of the multiple myeloma cell Kms12” value in data set [1] is listed as “potent suppressive action; also recorded: potently suppressed; also recorded: growth inhibition”.

As to `O=C1NC(=O)c2ccccc21` [phthalimide], on CRBN, the “CRBN eluted from thalidomide-immobilized beads by the compound” value is “very little CRBN was eluted; also recorded: not eluted” and the “bindability with CRBN” value is reported as “low bindability”. At CRBN (Example 6, 293T extracts, elution with 1 mM compound), the “CRBN in the eluate fraction” value was “not detected”. In addition, the “DDB1 in the eluate fraction” value in the data set with DDB1 is recorded as “not detected”.

Take “zcrbn-AMO: antisense morpholino oligo for zcrbn, 5′-AGAGCTGTAGCTGGTTCCCCATTTC-3′ (SEQ ID NO: 5) (all phosphorodiamidate morpholino (PMO))”: the fgf8a expression entry with fgf8a was “reduced”. Moreover, the shh expression result in the data set on shh is listed as “no difference”. In addition, in the data set with zebrafish embryos, the “fin and otic vesicle development” value is recorded as “exhibited defects”. The “reduction of the size of otic vesicles compared to wild type” value with zebrafish embryos (AMO-injected embryos at 27 hpf) is reported as 40%.

Regarding “zcul4a AMO: antisense morpholino oligo for zcul4a, 5′-CTGGTGCTGAACATCTTCTGCCATC-3′ (SEQ ID NO: 6) (all phosphorodiamidate morpholino (PMO))”, in the data set with fgf8a, the fgf8a expression entry is given as “reduced”. Besides, in the data set on shh, the shh expression entry is on record as “no difference”. Moreover, the “fin and otic vesicle development” value in the data set on zebrafish embryos was “caused defects”. Besides, the “size of otic vesicles, of the control size” value in the data set on zebrafish embryos (knockdown embryos at 27 hpf) amounted to 40%.
